Assay results taken from PubChem BioAssay (NCI).
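A five-concentration, 48-hour dose response in 96-well plates underlies each endpoint, interpolated linearly between surrounding concentrations. TGI denotes the concentration required for complete inhibition of growth.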

Key:
Experiment in all cases: DTP human tumour cell line panel, 48 h
HS 578T breast = tested on: HS 578T breast
SK-MEL-5 melanoma = tested on: SK-MEL-5 melanoma
CAKI-1 renal = tested on: CAKI-1 renal
NCI/ADR-RES ovarian = tested on: NCI/ADR-RES ovarian
M14 melanoma = tested on: M14 melanoma
CCRF-CEM leukemia = tested on: CCRF-CEM leukemia
786-0 renal = tested on: 786-0 renal
MCF7 breast = tested on: MCF7 breast
HOP-92 NSCLC = tested on: HOP-92 NSCLC
IGROV1 ovarian = tested on: IGROV1 ovarian

Row | Compound | TGI (HS 578T breast) | TGI (SK-MEL-5 melanoma) | TGI (CAKI-1 renal) | TGI (NCI/ADR-RES ovarian) | TGI (M14 melanoma) | TGI (CCRF-CEM leukemia) | TGI (786-0 renal) | TGI (MCF7 breast) | TGI (HOP-92 NSCLC) | TGI (IGROV1 ovarian)
1 | NC(=O)c1ccc[n+](C2=C([O-])c3ccccc3C(=O)/C2=N\S(=O)(=O)c2ccccc2)c1 | 47.3 µM | 21.3 µM | 37.1 µM | 36.3 µM | 29.1 µM | > 100 µM | 32.3 µM | 29.6 µM | 26.5 µM | 24.5 µM
2 | CC[C@H](NC(=O)OC(C)(C)C)C(=O)NCP(=O)(OCc1ccc([N+](=O)[O-])cc1)OCc1ccc([N+](=O)[O-])cc1 | > 100 µM | 26.4 µM | > 100 µM | > 100 µM | > 100 µM | > 100 µM | > 100 µM | > 100 µM | > 100 µM | > 100 µM
3 | CSc1nc(=O)c2nc(-c3cccs3)c(-c3cccs3)nc2n1C | > 100 µM | > 100 µM | > 100 µM | > 100 µM | > 100 µM | > 100 µM | > 100 µM | > 100 µM | 83.5 µM | > 100 µM
4 | CC1=NN2C(=N)/C(=C/c3ccc(F)cc3)C(=O)N=C2S1 | > 100 µM | > 100 µM | > 100 µM | 28.5 µM | > 100 µM | > 100 µM | > 100 µM | > 100 µM | > 100 µM | > 100 µM
5 | CNC(=S)N1CCN(C(C)=O)C1=S | 87.5 µM | > 100 µM | > 100 µM | > 100 µM | > 100 µM | > 100 µM | > 100 µM | > 100 µM | > 100 µM | > 100 µM
6 | CCC1([N+](=O)[O-])CN(N=O)C1 | > 100 µM | > 100 µM | > 100 µM | > 100 µM | > 100 µM | > 100 µM | > 100 µM | > 100 µM | > 100 µM | > 100 µM
7 | Cc1cc(S(=O)(=O)N=C2Nc3cccc4cccc(c34)N2)c(S)cc1Cl | > 100 µM | > 100 µM | > 100 µM | > 100 µM | > 100 µM | > 100 µM | > 100 µM | > 100 µM | > 100 µM | > 100 µM
8 | COc1cc2c(cc1OCc1ccccc1)NC(=O)[C@@H]1CCCN1C2=O | > 100 µM | > 100 µM | > 100 µM | > 100 µM | > 100 µM | > 100 µM | > 100 µM | > 100 µM | > 100 µM | > 100 µM
9 | CC1=C(C)SC(=C2Sc3c(n(C)c(=O)n(C)c3=O)S2)S1 | > 100 µM | > 100 µM | > 100 µM | > 100 µM | > 100 µM | > 100 µM | 34.8 µM | > 100 µM | > 100 µM | > 100 µM
10 | CC1(C)N=C(N)N=C(N)N1c1cccc(Cl)c1 | > 100 µM | > 100 µM | > 100 µM | > 100 µM | > 100 µM | > 100 µM | > 100 µM | > 100 µM | > 100 µM | > 100 µM
11 | CO[P@@]1(=O)O[C@@H](c2ccccc2)[C@H](O)[C@]1(O)c1ccccc1 | > 100 µM | > 100 µM | > 100 µM | > 100 µM | > 100 µM | > 100 µM | > 100 µM | > 100 µM | > 100 µM | > 100 µM
12 | Cc1cc(-c2cc(C(C)(C)C)c(O)c(C(C)(C)C)c2)c(C)cc1-c1cc(C(C)(C)C)c(O)c(C(C)(C)C)c1 | > 100 µM | > 100 µM | > 100 µM | > 100 µM | > 100 µM | > 100 µM | > 100 µM | > 100 µM | 38.2 µM | > 100 µM
13 | C[C@H]1[C@H](C)CC[C@]2(C(=O)OC3OC(CO)C(O)C(O)C3O)CC[C@]3(C)C(=CC[C@@H]4[C@@]5(C)C[C@@H](O)[C@@H]6OC(=O)c7cc(O)c(O)c(O)c7-c7c(cc(O)c(O)c7O)C(=O)OC[C@@]6(CO)[C@@H]5CC[C@]43C)[C@H]12 (stereo not given in full) | > 100 µM | > 100 µM | > 100 µM | > 100 µM | > 100 µM | 98.7 µM | > 53.7 µM | 36.4 µM | > 100 µM | > 100 µM
14 | O=C1C=CC(=O)c2c(O)c(N3CCC[C@@H]3CO)c(Cl)c(O)c21 | 4.03 µM | 2.28 µM | 2.94 µM | 6.25 µM | 3.2 µM | 0.869 µM | 3.17 µM | 2.7 µM | 3.04 µM | 3.27 µM
15 | CSc1ncc2c(n1)-c1ccccc1OC2NC1CC1 (stereo not given) | > 100 µM | > 100 µM | 86.3 µM | > 100 µM | > 100 µM | > 100 µM | > 100 µM | > 100 µM | > 100 µM | > 100 µM
16 | Cc1nc2c(=O)n(-c3ccccc3)c(=O)n(-c3ccccc3)c2o1 | > 100 µM | > 100 µM | > 100 µM | > 100 µM | > 100 µM | > 100 µM | > 100 µM | > 100 µM | > 100 µM | > 100 µM
17 | CC(C)=CCC[C@@H](C)C1=C(Nc2ccccc2F)C(O)=C(C)C(=O)C1=O | 57.1 µM | 14.8 µM | 34.2 µM | > 23.8 µM | > 100 µM | 3.9 µM | > 100 µM | 81.6 µM | > 69.9 µM | > 39.1 µM

Row | Compound | TGI (HS 578T breast) | TGI (SK-MEL-5 melanoma) | TGI (CAKI-1 renal) | TGI (NCI/ADR-RES ovarian) | TGI (M14 melanoma) | TGI (CCRF-CEM leukemia) | TGI (786-0 renal) | TGI (MCF7 breast) | TGI (HOP-92 NSCLC) | TGI (IGROV1 ovarian)
18 | Cc1cc(-c2ccccc2)nc2oc(=O)n(C)c12 | > 100 µM | > 100 µM | > 100 µM | > 100 µM | > 100 µM | > 100 µM | > 100 µM | > 100 µM | > 100 µM | > 100 µM
19 | Nc1c(N2CCOCC2)c(=O)nc2[nH]/c(=C\c3ccccc3O)c(=O)n12 | > 100 µM | > 100 µM | > 100 µM | > 100 µM | > 100 µM | > 100 µM | > 100 µM | > 100 µM | > 100 µM | > 100 µM
20 | O=C(c1ccc([N+](=O)[O-])cc1)N1CCCC1 | > 100 µM | > 100 µM | > 100 µM | > 100 µM | > 100 µM | > 100 µM | > 100 µM | > 100 µM | > 100 µM | > 100 µM
21 | Cc1c(C(=O)NNc2ccccc2)n2c(=S)[nH]nc2c2ccccc12 | > 100 µM | > 100 µM | > 100 µM | > 100 µM | > 100 µM | > 100 µM | > 100 µM | > 100 µM | > 100 µM | > 100 µM
22 | CCN(CC)C(=S)N/N=C(/c1ccccc1)c1ccccn1 | > 100 µM | 4.83 µM | 11 µM | 14.3 µM | 0.794 µM | 1.09 µM | 1.19 µM | > 54 µM | > 100 µM | 6.72 µM
23 | COc1ccc2c(c1OC)C(=O)N1C2=Cc2c(cc3c(c2OC)OCO3)CC1N(C)C (stereo not given) | > 100 µM | > 100 µM | > 100 µM | > 100 µM | > 100 µM | > 100 µM | > 100 µM | > 100 µM | > 100 µM | > 100 µM
24 | CC1(C)OCC(C2OC(C)(C)OC2[C@H]2O[C@@]3(O)[C@H]4[C@H](C=CC[C@@H]42)[C@@H](OCc2ccccc2)[C@H](OCc2ccccc2)[C@H]3OCc2ccccc2)O1 (stereo not given in full) | > 100 µM | > 100 µM | > 100 µM | > 100 µM | > 100 µM | > 100 µM | > 100 µM | > 100 µM | > 100 µM | > 100 µM
25 | CCc1nc2c(c(N(C)C)c1C(=O)OC)CCc1ccccc1-2 | > 100 µM | 32.9 µM | > 100 µM | > 100 µM | 74.2 µM | 9.43 µM | > 100 µM | 48.2 µM | > 100 µM | > 100 µM
26 | Clc1ccc(/C(=C/c2ccccc2)Cn2ccnc2)cc1 | > 100 µM | 36.4 µM | > 100 µM | 66.6 µM | 65.6 µM | > 100 µM | > 100 µM | > 100 µM | 67.2 µM | > 100 µM
27 | CN1C2=Nc3n(c4ccccc4[n+]3C)CN2c2ccccc21 | 90.8 µM | 27.8 µM | > 100 µM | > 100 µM | > 100 µM | > 100 µM | > 100 µM | 33.6 µM | 81.1 µM | > 100 µM
28 | CC1=C(C(=O)OCCO[N+](=O)[O-])C(c2ccccc2[N+](=O)[O-])C(C(=O)OC(C)C)=C(C)N1 (stereo not given) | 41.2 µM | 26.8 µM | 59.7 µM | 51.7 µM | 29.3 µM | > 100 µM | 41.4 µM | 44.9 µM | 31.4 µM | 34.9 µM
29 | O=c1c2cc([N+](=O)[O-])ccc2oc2nc3n(c(=O)c12)CCCS3 | > 100 µM | > 100 µM | > 100 µM | > 100 µM | > 100 µM | > 100 µM | > 100 µM | > 100 µM | > 100 µM | > 100 µM
30 | CCOC(=O)[C@@H](Cc1ccc(CCl)cc1)NC(C)=O | 60.8 µM | 31.5 µM | 68.6 µM | 43.9 µM | 89.3 µM | > 100 µM | 40.4 µM | 83.5 µM | 43.6 µM | 51.2 µM
31 | CSc1ccc(/C=C2\N=C(c3ccccc3)N(c3nc4cc(Cl)c(F)cc4s3)C2=O)cc1 | 97.3 µM | > 100 µM | > 100 µM | 99.1 µM | > 100 µM | 55.6 µM | > 100 µM | > 100 µM | > 100 µM | > 100 µM
32 | CC(C)(C)/C(O)=C\c1nc2cc(F)c(F)cc2[nH]c1=O | > 100 µM | > 100 µM | > 100 µM | > 100 µM | > 100 µM | > 100 µM | > 100 µM | > 100 µM | > 100 µM | > 100 µM
33 | NC(=O)NN=C1Cc2ccccc2C1 | > 100 µM | > 100 µM | > 100 µM | > 100 µM | > 100 µM | > 100 µM | > 100 µM | > 100 µM | > 100 µM | > 100 µM
